Data taken from publication PMC6691805 (Journal of Enzyme Inhibition and Medicinal Chemistry, 2019).

Molecular target: T1, 17β-HSD1 (Homo sapiens, UniProt P14061)
T1 sequence (P14061 1-328): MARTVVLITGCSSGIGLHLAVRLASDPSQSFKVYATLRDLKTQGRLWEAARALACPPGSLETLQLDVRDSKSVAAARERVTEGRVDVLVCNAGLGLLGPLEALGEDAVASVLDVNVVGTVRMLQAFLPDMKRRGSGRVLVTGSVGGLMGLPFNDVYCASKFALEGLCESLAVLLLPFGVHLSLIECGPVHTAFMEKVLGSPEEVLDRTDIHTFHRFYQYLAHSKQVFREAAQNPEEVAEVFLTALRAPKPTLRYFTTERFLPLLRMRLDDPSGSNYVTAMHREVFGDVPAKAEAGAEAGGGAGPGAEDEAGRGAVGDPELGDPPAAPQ
Assay type: biochemical

**Q.** What does the source list for `COC(=O)CO[C@@H]1CC(=O)[C@@]2(C)CC[C@@H]3c4ccc(OCc5ccccc5)cc4CC[C@H]3[C@H]12` [Compound 22, 3-Benzyloxy-15β-(2’-methoxy-2’-oxoethoxy)-estra-1,3,5(10)-trien-17-one]?
**A.** cofactor preference in terms of RIP values, favouring the NADPH bound enzyme (cofactor preference for NADPH in terms of RIP values): 2–11 fold; 17β-HSD1 inhibitory effect (in words) (evaluation of potentials obtained with NADPH): potent inhibitors
